Where two headings read alike, the source gives them in different places.

Common to all, as to type: in vivo
Test [1] relates to Kochia (Kochia scoparia). Kind of test: Test A preemergence. The settings on record: Bassia scoparia, pre-emergence, 240 h; for pest or weed control at 125 g/ha: 125 g ai/ha; for pest or weed control at 500 g/ha: 500 g ai/ha. In a few lines: (§1)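 Visual injury scores from 0, no effect, to 100, complete control, were assigned versus untreated controls roughly 10 d after treatment in the greenhouse. Test chemicals, formulated with surfactant in a non-phytotoxic solvent, were applied to planted seeds as a preemergence soil spray or postemergence to one- to two-leaf plants 2 to 10 cm tall, in loam–sand soil.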

In test [2] the test system is barnyardgrass (Echinochloa crus-galli). Nature of the test: Test A preemergence. The settings on record: Echinochloa crus-galli, pre-emergence, 240 h; for pest or weed control at 125 g/ha: 125 g ai/ha; for pest or weed control at 500 g/ha: 500 g ai/ha. In a few lines: as §1
Test [3] relates to giant foxtail (Setaria faberii). Kind of test: Test A preemergence. The following applies: Setaria faberi, pre-emergence, 240 h; for pest or weed control at 125 g/ha: 125 g ai/ha; for pest or weed control at 500 g/ha: 500 g ai/ha. In a few lines: as §1
Test [4] deals with pigweed (Amaranthus retroflexus). Nature of the test: Test A preemergence. The following applies: Amaranthus retroflexus, pre-emergence, 240 h; for pest or weed control at 125 g/ha: 125 g ai/ha; for pest or weed control at 500 g/ha: 500 g ai/ha.
The test system of test [5] is ragweed (common ragweed, Ambrosia elatior). Nature of the test: Test A preemergence. The settings on record: Ambrosia artemisiifolia, pre-emergence, 240 h; for pest or weed control at 125 g/ha: 125 g ai/ha; for pest or weed control at 500 g/ha: 500 g ai/ha. In a few lines: as §1
Test [6] concerns ryegrass, Italian (Italian ryegrass, Lolium multiflorum). Kind of test: Test A preemergence. The settings on record: Lolium multiflorum, pre-emergence, 240 h; for pest or weed control at 125 g/ha: 125 g ai/ha; for pest or weed control at 500 g/ha: 500 g ai/ha. In a few lines:
as §1

The subject of test [7] is Galium (catchweed bedstraw, Galium aparine). Kind of test: Test A postemergence. The settings on record: Galium, post-emergence, 240 h, 125 g ai/ha. An outline of the steps: as §1
Test [8] relates to barnyardgrass (Echinochloa crus-galli). Kind of test: Test A postemergence. The following applies: Echinochloa crus-galli, post-emergence, 240 h, 125 g ai/ha. In a few lines:
as §1

The subject of test [9] is corn (Zea mays). Nature of the test: Test A postemergence. The following applies: Zea mays, post-emergence, 240 h, 125 g ai/ha; for plant injury at 125 g/ha: postemergence, visual injury rating after approximately 10 d, read-out: Corn plant response rating (0 to 100 scale, 0 no effect, 100 complete control). An outline of the steps: as §1
For test [10], the system named is ragweed (common ragweed, Ambrosia elatior). Kind of test: Test A postemergence. The following applies: Ambrosia artemisiifolia, post-emergence, 240 h, 125 g ai/ha. In a few lines: as §1
In test [11] the test system is barnyardgrass (Echinochloa crus-galli). Kind of test: Test B flooded paddy test. The following applies: Echinochloa crus-galli, Flood, 250 g ai/ha; scale of 0 to 100 where 0 is no effect and 100 is complete control; read-out: Barnyardgrass plant response rating. An outline of the steps:
(§2)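 Percent control, visually estimated after 13–15 d in the greenhouse on a 0–100 basis, compares treated pots with untreated ones; compound was put into paddy water 3 cm above the soil when plants had two leaves.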

For test [12], the system named is ducksalad (Heteranthera limosa). Kind of test: Test B flooded paddy test. The settings on record: Heteranthera limosa, Flood, 250 g ai/ha; scale of 0 to 100 where 0 is no effect and 100 is complete control; read-out: Ducksalad plant response rating. An outline of the steps: as §2
Test [13] deals with rice (Oryra sativa). Kind of test: Test B flooded paddy test. The settings on record: Oryza sativa, Flood, 250 g ai/ha; scale of 0 to 100 where 0 is no effect and 100 is complete control; read-out: Rice plant response rating. An outline of the steps:
as §2

Test [14] deals with sedge, umbrella (small-flower umbrella sedge, Cyperus difformis). Kind of test: Test B flooded paddy test. The following applies: Cyperus difformis, Flood, 250 g ai/ha; scale of 0 to 100 where 0 is no effect and 100 is complete control; read-out: Sedge, Umbrella plant response rating. An outline of the steps: as §2
Setting [15] is: preemergence, 0 to 100 scale where 0 is no effect and 100 is complete control, read-out: Kochia plant response rating.
Setting [16] is: Preemergence, visual injury vs untreated controls after approximately 10 d, read-out: Kochia plant response rating (0 to 100 scale where 0 is no effect and 100 is complete control).
[17] abbreviates: preemergence, 0 to 100 scale where 0 is no effect and 100 is complete control, read-out: Barnyardgrass plant response rating.
Setting [18] is: Preemergence, visual injury vs untreated controls after approximately 10 d, read-out: Barnyardgrass plant response rating (0 to 100 scale where 0 is no effect and 100 is complete control).
[19] abbreviates: preemergence, 0 to 100 scale where 0 is no effect and 100 is complete control, read-out: Foxtail, Giant plant response rating.
Setting [20] is: Preemergence, visual injury vs untreated controls after approximately 10 d, read-out: Foxtail, Giant plant response rating (0 to 100 scale where 0 is no effect and 100 is complete control).
Setting [21] is: preemergence, 0 to 100 scale where 0 is no effect and 100 is complete control, read-out: Pigweed plant response rating.
Setting [22] is: Preemergence, visual injury vs untreated controls after approximately 10 d, read-out: Pigweed plant response rating (0 to 100 scale where 0 is no effect and 100 is complete control).
Setting [23] is: preemergence, 0 to 100 scale where 0 is no effect and 100 is complete control, read-out: Ragweed plant response rating.
The mark [24] stands for this setting: Preemergence, visual injury vs untreated controls after approximately 10 d, read-out: Ragweed plant response rating (0 to 100 scale where 0 is no effect and 100 is complete control).
Where [25] appears, read: preemergence, 0 to 100 scale where 0 is no effect and 100 is complete control, read-out: Ryegrass, Italian plant response rating.
Setting [26] is: Preemergence, visual injury vs untreated controls after approximately 10 d, read-out: Ryegrass, Italian plant response rating (0 to 100 scale where 0 is no effect and 100 is complete control).
[27] abbreviates: postemergence, visual injury rating after approximately 10 d, read-out: Galium plant response rating (0 to 100 scale, 0 no effect, 100 complete control).
[28] abbreviates: postemergence, visual injury rating after approximately 10 d, read-out: Barnyardgrass plant response rating (0 to 100 scale, 0 no effect, 100 complete control).
Where [29] appears, read: postemergence, visual injury rating after approximately 10 d, read-out: Ragweed plant response rating (0 to 100 scale, 0 no effect, 100 complete control).

Turning to `CN1C[C@H](c2cccc(F)c2)[C@@H](C(=O)Nc2ccccc2S(C)(=O)=O)C1=O` [Compound 824], the pest or weed control at 125 g/ha was found to be 60% in test [1] (setting [15]); 90% in [2] (setting [17]); 90% in test [3] (setting [19]); 0% in test [4] (setting [21]); 20% in [5] (setting [23]); 20% in [6] (setting [25]). Also, the figures for the pest or weed control at 125 g/ha in test [7] (setting [27]), in [8] (setting [28]) and in [10] (setting [29]) were 40%, 90% and 30%, respectively. Besides, the pest or weed control at 500 g/ha turned out to be 70% in test [1] (setting [16]); 100% in test [2] (setting [18]); 100% in [3] (setting [20]); 40% in test [4] (setting [22]); 50% in [5] (setting [24]); 40% in [6] (setting [26]). Moreover, in [9], the plant injury at 125 g/ha came to 0%. In addition, the pest or weed control at 250 g/ha in [11] was 65%; in [12], 95%; in test [13] it was 0%; in test [14] it was 0%.

With `CC(C)Oc1ccc([C@H]2CN(C)C(=O)[C@@H]2C(=O)Nc2ccc(F)cc2F)cc1` [Compound 954], the pest or weed control at 125 g/ha in [1] (Preemergence, visual injury rating after approximately 10 d, read-out: Kochia plant response rating (0 to 100 scale, 0 is no effect, 100 is complete control)) is 0%; in test [2] (Preemergence, visual injury rating after approximately 10 d, read-out: Barnyardgrass plant response rating (0 to 100 scale, 0 is no effect, 100 is complete control)), 70%; in test [3] (Preemergence, visual injury rating after approximately 10 d, read-out: Foxtail, Giant plant response rating (0 to 100 scale, 0 is no effect, 100 is complete control)) it was 90%; in test [4] (Preemergence, visual injury rating after approximately 10 d, read-out: Pigweed plant response rating (0 to 100 scale, 0 is no effect, 100 is complete control)), 0%; in [5] (Preemergence, visual injury rating after approximately 10 d, read-out: Ragweed plant response rating (0 to 100 scale, 0 is no effect, 100 is complete control)), 0%; in test [6] (Preemergence, visual injury rating after approximately 10 d, read-out: Ryegrass, Italian plant response rating (0 to 100 scale, 0 is no effect, 100 is complete control)) it was 0%. Further, the pest or weed control at 125 g/ha was 0% in test [7] (Postemergence, visual injury after approximately 10 d, 0 to 100 scale where 0 is no effect and 100 is complete control, read-out: Plant response rating, Galium); 60% in [8] (Postemergence, visual injury after approximately 10 d, 0 to 100 scale where 0 is no effect and 100 is complete control, read-out: Plant response rating, Barnyardgrass); 0% in test [10] (Postemergence, visual injury after approximately 10 d, 0 to 100 scale where 0 is no effect and 100 is complete control, read-out: Plant response rating, Ragweed). In addition, the pest or weed control at 500 g/ha was 20% in [1] (preemergence, visual injury rating about 10 d after treatment, 0 to 100 scale (0 no effect, 100 complete control), read-out: Kochia plant response rating); 90% in test [2] (preemergence, visual injury rating about 10 d after treatment, 0 to 100 scale (0 no effect, 100 complete control), read-out: Barnyardgrass plant response rating); 90% in [3] (preemergence, visual injury rating about 10 d after treatment, 0 to 100 scale (0 no effect, 100 complete control), read-out: Foxtail, Giant plant response rating); 0% in [4] (preemergence, visual injury rating about 10 d after treatment, 0 to 100 scale (0 no effect, 100 complete control), read-out: Pigweed plant response rating); 0% in [5] (preemergence, visual injury rating about 10 d after treatment, 0 to 100 scale (0 no effect, 100 complete control), read-out: Ragweed plant response rating); 0% in [6] (preemergence, visual injury rating about 10 d after treatment, 0 to 100 scale (0 no effect, 100 complete control), read-out: Ryegrass, Italian plant response rating). In test [9] (Postemergence, visual injury after approximately 10 d, 0 to 100 scale where 0 is no effect and 100 is complete control), the Corn plant response rating (crop injury, 0 = no effect, 100 = complete kill) at 125 g/ha is 0%. Also, the pest or weed control at 250 g/ha in [11] stood at 0%; in test [12], 35%; in test [13], 0%; in test [14], 0%.

For `Cc1c(F)ccc([C@H]2CNC(=O)[C@@H]2C(=O)Nc2ccccc2C(F)(F)F)c1F` [Compound 831], the pest or weed control at 125 g/ha was found to be 0% in test [1] (setting [15]); 50% in test [2] (setting [17]); 90% in test [3] (setting [19]); 20% in test [4] (setting [21]); 0% in [5] (setting [23]); 30% in test [6] (setting [25]). For the same compound, the figures for the pest or weed control at 125 g/ha in test [7] (setting [27]), in [8] (setting [28]) and in test [10] (setting [29]) were 20%, 30% and 0%, respectively. For the same compound, the pest or weed control at 500 g/ha in [1] (setting [16]) was 0%; in [2] (setting [18]), 70%; in test [3] (setting [20]) it was 90%; in test [4] (setting [22]), 20%; in test [5] (setting [24]) it was 0%; in test [6] (setting [26]) it was 50%. Besides, the plant injury at 125 g/ha in test [9] amounted to 0%. Besides, the pest or weed control at 250 g/ha in [11] amounted to 0%; in test [12] it was 70%; in test [13] it was 0%; in test [14], 0%.

These data come from patent US12077503B2, “Substituted cyclic amides and their use as herbicides” (FMC CORPORATION, priority 2015, dated 2024).
